# In patent US20100298141A1, “SUBSTITUTED PYRIDINE N-OXIDE HERBICIDES” (E. I. DU PONT DE NEMOURS AND COMPANY, priority 2007, published 2010):
# Legend:
# barnyardgrass [1] = test: Test B flooded paddy test; assay type: in vivo, Echinochloa crus-galli; conditions: Flood, 250 g ai/ha, 13 to 15 days; scale 0 to 100, 0 no effect, 100 complete control
# From the text: (§1) At time of treatment, test pots were flooded to 3 cm above the soil surface, treated by application of test compounds directly to the paddy water, and then maintained at that water depth for the duration of the test. Treated plants and controls were maintained in a greenhouse for 13 to 15 days, after which time all species were compared to controls and visually evaluated. […] A dash (-) response means no test result.
# duck salad = test: Test B flooded paddy test; assay type: in vivo, Heteranthera limosa; conditions: Flood, 250 g ai/ha, 13 to 15 days; scale 0 to 100, 0 no effect, 100 complete control
# From the text: as §1
# rice = test: Test B flooded paddy test; assay type: in vivo, Oryza sativa; conditions: Flood, 250 g ai/ha, 13 to 15 days; scale 0 to 100, 0 no effect, 100 complete control
# From the text: as §1
# umbrella sedge = test: Test B flooded paddy test; assay type: in vivo, Cyperus difformis; conditions: Flood, 250 g ai/ha, 13 to 15 days; scale 0 to 100, 0 no effect, 100 complete control
# From the text: as §1
# annual bluegrass = test: Test D preemergence test; assay type: in vivo, Poa annua; conditions: scale 0 to 100
# Procedure, shortened: (§2)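 Test chemicals, in a non-phytotoxic solvent blend with surfactant, were applied preemergence to planted seeds; where no result was obtained, a dash is shown.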
# blackgrass = test: Test D preemergence test; assay type: in vivo, Alopecurus myosuroides; conditions: scale 0 to 100
# Procedure, shortened: as §2
# downy bromegrass = test: Test D preemergence test; assay type: in vivo, Bromus tectorum; conditions: scale 0 to 100
# Procedure, shortened: as §2
# field violet = test: Test D preemergence test; assay type: in vivo, Viola arvensis; conditions: scale 0 to 100
# Procedure, shortened: as §2
# Italian ryegrass = test: Test D preemergence test; assay type: in vivo, Lolium multiflorum; conditions: scale 0 to 100
# Procedure, shortened: as §2
# littleseed canarygrass = test: Test D preemergence test; assay type: in vivo, Phalaris minor; conditions: scale 0 to 100
# Procedure, shortened: as §2
# spring wheat = test: Test D preemergence test; assay type: in vivo, Triticum aestivum; conditions: scale 0 to 100
# Procedure, shortened: as §2
# winter wheat = test: Test D preemergence test; assay type: in vivo, Triticum aestivum; conditions: scale 0 to 100
# Procedure, shortened: as §2
# wild oat = test: Test D preemergence test; assay type: in vivo, Avena fatua; conditions: scale 0 to 100
# Procedure, shortened: as §2
# winter barley = test: Test D preemergence test; assay type: in vivo, Hordeum vulgare
# Procedure, shortened: as §2
# barnyardgrass [2] = test: Test G preemergence test; assay type: in vivo, Echinochloa crus-galli; conditions: scale 0 to 100
# corn = test: Test G preemergence test; assay type: in vivo, Zea mays; conditions: scale 0 to 100
# field sandbur = test: Test G preemergence test; assay type: in vivo, Cenchrus incertus; conditions: scale 0 to 100
# goosegrass = test: Test G preemergence test; assay type: in vivo, Eleusine indica; conditions: scale 0 to 100
# itchgrass = test: Test G preemergence test; assay type: in vivo, Rottboellia cochinchinensis; conditions: scale 0 to 100
# millet foxtail = test: Test G preemergence test; assay type: in vivo, Setaria italica; conditions: scale 0 to 100
# sorghum = test: Test G preemergence test; assay type: in vivo, Sorghum vulgare; conditions: scale 0 to 100
# soybean = test: Test G preemergence test; assay type: in vivo, Glycine max; conditions: scale 0 to 100
# tall waterhemp = test: Test G preemergence test; assay type: in vivo, Amaranthus tuberculatos; conditions: scale 0 to 100
# yellow foxtail = test: Test G preemergence test; assay type: in vivo, Pennisetum glaucum; conditions: scale 0 to 100
# yellow nutsedge = test: Test G preemergence test; assay type: in vivo, Cyperus esculentus; conditions: scale 0 to 100
# woolly cupgrass = test: Test G preemergence test; assay type: in vivo, Eriochloa villosa; conditions: scale 0 to 100
smiles,measurement,setting,value
Cc1cc[n+]([O-])c(S(=O)(=O)Cc2c(C(F)(F)F)nn(C)c2OC(F)F)c1 [Compound 2],"Plant response rating, Barnyardgrass",barnyardgrass [1],80
same,"Plant response rating, Ducksalad",duck salad,100
same,"Plant response rating, Rice, Transplanted",rice,80
same,"Plant response rating, Umbrella Sedge",umbrella sedge,100
same,"Plant response rating, Bluegrass",annual bluegrass; 31 g ai/ha,20
same,"Plant response rating, Bluegrass",annual bluegrass; 62 g ai/ha,40
same,"Plant response rating, Bluegrass",annual bluegrass; 125 g ai/ha,100
same,"Plant response rating, Bluegrass",annual bluegrass; 250 g ai/ha,100
same,"Plant response rating, Blackgrass",blackgrass; 31 g ai/ha,0
same,"Plant response rating, Blackgrass",blackgrass; 62 g ai/ha,70
same,"Plant response rating, Blackgrass",blackgrass; 125 g ai/ha,100
same,"Plant response rating, Blackgrass",blackgrass; 250 g ai/ha,100
same,"Plant response rating, Bromegrass, Downy",downy bromegrass; 31 g ai/ha,0
same,"Plant response rating, Bromegrass, Downy",downy bromegrass; 62 g ai/ha,20
same,"Plant response rating, Bromegrass, Downy",downy bromegrass; 125 g ai/ha,50
same,"Plant response rating, Bromegrass, Downy",downy bromegrass; 250 g ai/ha,55
same,"Plant response rating, Field Violet",field violet; 31 g ai/ha,0
same,"Plant response rating, Field Violet",field violet; 62 g ai/ha,0
same,"Plant response rating, Field Violet",field violet; 125 g ai/ha,95
same,"Plant response rating, Field Violet",field violet; 250 g ai/ha,100
same,"Plant response rating, Ryegrass, Italian",Italian ryegrass; 31 g ai/ha,0
same,"Plant response rating, Ryegrass, Italian",Italian ryegrass; 62 g ai/ha,0
same,"Plant response rating, Ryegrass, Italian",Italian ryegrass; 125 g ai/ha,30
same,"Plant response rating, Ryegrass, Italian",Italian ryegrass; 250 g ai/ha,50
same,"Plant response rating, Canarygrass",littleseed canarygrass; 31 g ai/ha,0
same,"Plant response rating, Canarygrass",littleseed canarygrass; 62 g ai/ha,60
same,"Plant response rating, Canarygrass",littleseed canarygrass; 125 g ai/ha,100
same,"Plant response rating, Canarygrass",littleseed canarygrass; 250 g ai/ha,100
same,"Plant response rating, Wheat, Spring",spring wheat; 31 g ai/ha,0
same,"Plant response rating, Wheat, Spring",spring wheat; 62 g ai/ha,0
same,"Plant response rating, Wheat, Spring",spring wheat; 125 g ai/ha,0
same,"Plant response rating, Wheat, Spring",spring wheat; 250 g ai/ha,15
same,"Plant response rating, Wheat, Winter",winter wheat; 31 g ai/ha,0
same,"Plant response rating, Wheat, Winter",winter wheat; 62 g ai/ha,0
same,"Plant response rating, Wheat, Winter",winter wheat; 125 g ai/ha,15
same,"Plant response rating, Wheat, Winter",winter wheat; 250 g ai/ha,25
same,"Plant response rating, Oat, Wild",wild oat; 31 g ai/ha,0
same,"Plant response rating, Oat, Wild",wild oat; 62 g ai/ha,0
same,"Plant response rating, Oat, Wild",wild oat; 125 g ai/ha,0
same,"Plant response rating, Oat, Wild",wild oat; 250 g ai/ha,10
same,"Plant response rating, Barley","winter barley; Preemergence, 62 g ai/ha, scale 0 to 100",0
same,"Plant response rating, Barley","winter barley; Preemergence, 125 g ai/ha, scale 0 to 100",10
same,"Plant response rating, Barley","winter barley; Preemergence, 31 g ai/ha, scale 0 to 100",0
same,"Plant response rating, Barley","winter barley; preemergence, 250 g ai/ha, scale 0 (no effect) to 100 (complete control)",10
same,"Plant response rating, Barnyardgrass",barnyardgrass [2]; 31 g ai/ha,15
same,"Plant response rating, Barnyardgrass",barnyardgrass [2]; 62 g ai/ha,100
same,"Plant response rating, Barnyardgrass",barnyardgrass [2]; 125 g ai/ha,100
same,"Plant response rating, Barnyardgrass",barnyardgrass [2]; 250 g ai/ha,100
same,"Plant response rating, Corn",corn; 31 g ai/ha,0
same,"Plant response rating, Corn",corn; 62 g ai/ha,0
same,"Plant response rating, Corn",corn; 125 g ai/ha,0
same,"Plant response rating, Corn",corn; 250 g ai/ha,10
same,"Plant response rating, Sandbur",field sandbur; 31 g ai/ha,0
same,"Plant response rating, Sandbur",field sandbur; 62 g ai/ha,0
same,"Plant response rating, Sandbur",field sandbur; 125 g ai/ha,85
same,"Plant response rating, Sandbur",field sandbur; 250 g ai/ha,100
same,"Plant response rating, Goosegrass",goosegrass; 31 g ai/ha,95
same,"Plant response rating, Goosegrass",goosegrass; 62 g ai/ha,100
same,"Plant response rating, Goosegrass",goosegrass; 125 g ai/ha,100
same,"Plant response rating, Goosegrass",goosegrass; 250 g ai/ha,100
same,"Plant response rating, Itchgrass",itchgrass; 31 g ai/ha,0
same,"Plant response rating, Itchgrass",itchgrass; 62 g ai/ha,15
same,"Plant response rating, Itchgrass",itchgrass; 125 g ai/ha,30
same,"Plant response rating, Itchgrass",itchgrass; 250 g ai/ha,50
same,"Plant response rating, Foxtail, Millet",millet foxtail; 31 g ai/ha,0
same,"Plant response rating, Foxtail, Millet",millet foxtail; 62 g ai/ha,100
same,"Plant response rating, Foxtail, Millet",millet foxtail; 125 g ai/ha,100
same,"Plant response rating, Foxtail, Millet",millet foxtail; 250 g ai/ha,100
same,"Plant response rating, Sorghum",sorghum; 31 g ai/ha,0
same,"Plant response rating, Sorghum",sorghum; 62 g ai/ha,0
same,"Plant response rating, Sorghum",sorghum; 125 g ai/ha,60
same,"Plant response rating, Sorghum",sorghum; 250 g ai/ha,100
same,"Plant response rating, Soybean",soybean; 31 g ai/ha,0
same,"Plant response rating, Soybean",soybean; 62 g ai/ha,0
same,"Plant response rating, Soybean",soybean; 125 g ai/ha,0
same,"Plant response rating, Soybean",soybean; 250 g ai/ha,0
same,"Plant response rating, Waterhemp",tall waterhemp; 31 g ai/ha,20
same,"Plant response rating, Waterhemp",tall waterhemp; 62 g ai/ha,100
same,"Plant response rating, Waterhemp",tall waterhemp; 125 g ai/ha,100
same,"Plant response rating, Waterhemp",tall waterhemp; 250 g ai/ha,100
same,"Plant response rating, Foxtail, Yellow",yellow foxtail; 31 g ai/ha,0
same,"Plant response rating, Foxtail, Yellow",yellow foxtail; 62 g ai/ha,20
same,"Plant response rating, Foxtail, Yellow",yellow foxtail; 125 g ai/ha,100
same,"Plant response rating, Foxtail, Yellow",yellow foxtail; 250 g ai/ha,100
same,"Plant response rating, Nutsedge, Yellow",yellow nutsedge; 31 g ai/ha,0
same,"Plant response rating, Nutsedge, Yellow",yellow nutsedge; 62 g ai/ha,0
same,"Plant response rating, Nutsedge, Yellow",yellow nutsedge; 125 g ai/ha,35
same,"Plant response rating, Nutsedge, Yellow",yellow nutsedge; 250 g ai/ha,75
same,"Plant response rating, Cupgrass, Woolly",woolly cupgrass; 31 g ai/ha,0
same,"Plant response rating, Cupgrass, Woolly",woolly cupgrass; 62 g ai/ha,0
same,"Plant response rating, Cupgrass, Woolly",woolly cupgrass; 125 g ai/ha,95
same,"Plant response rating, Cupgrass, Woolly",woolly cupgrass; 250 g ai/ha,95
